Measured values from the OPERA property sets (Mansouri et al. 2018).

Compound | boiling point [°C] | log10 vapour pressure (mmHg) | ready biodegradability | melting point [°C] | log10 Koc (L/kg)
C[Si](C)(Cl)Cl | 70.3 | 2.16 | – | – | –
O=S(=O)(Cl)Cc1ccccc1 | – | – | readily biodegradable | – | –
Cc1ccccc1Cc1ccccc1 | 280 | – | – | 6.6 | –
Nc1c(Cl)cc([N+](=O)[O-])cc1Cl | – | -5.92 | not readily biodegradable | 191 | 3
CC(Cl)[N+](=O)[O-] (stereo not drawn) | 124 | – | – | – | –
CCc1cccc2c3c([nH]c12)C(CC)(CC(=O)O)OCC3 (stereo not drawn) | – | – | – | 146 | –
C=CCC1(c2ccccc2)C(=O)NC(=O)NC1=O | – | – | – | 156 | –
O=C(O)c1cc(O)nc(O)n1 | – | – | – | 346 | –
N[C@@H](CSSC[C@H](N)C(=O)O)C(=O)O | – | – | readily biodegradable | – | –
CCSC(=O)COc1ccc(Cl)cc1C | – | -3.8 | – | 41.5 | –
Cc1ccccc1CC#N | 244 | – | – | – | –
N#Cc1c(Cl)cccc1Cl | 270 | -3.18 | – | 144 | 2.5
CCC(C)C(C)=O (stereo not drawn) | 118 | 1.06 | – | – | –
CC(C=O)c1ccccc1 (stereo not drawn) | 204 | -0.569 | – | – | –
CCC(C)c1ccccc1O (stereo not drawn) | 228 | – | not readily biodegradable | 16 | –
Cc1cc(N)nc(C)n1 | – | – | – | 183 | –
CCCCCCc1ccccc1 | 226 | -0.919 | readily biodegradable | -61 | –
